From patent US10925876B2, “Methods for using triazolo-pyrazinyl soluble guanylate cyclase activators in fibrotic disorders” (Merck Sharp & Dohme Corp., priority 2016, dated 2021)

target: T1, sGC α1/β1 heterodimer (Homo sapiens, UniProt Q02108+Q02153); test: Cell-Based sGC Functional Assay (CASA Assay), cGMP generation in CHO-K1/sGC cells; conditions: maximum cGMP production of Compound A set to 100% activation, read-out: % Act. (percent activation relative to Compound A)
T1 construct: expressed in transfected cells
T1 sequence (Q02108 1-690): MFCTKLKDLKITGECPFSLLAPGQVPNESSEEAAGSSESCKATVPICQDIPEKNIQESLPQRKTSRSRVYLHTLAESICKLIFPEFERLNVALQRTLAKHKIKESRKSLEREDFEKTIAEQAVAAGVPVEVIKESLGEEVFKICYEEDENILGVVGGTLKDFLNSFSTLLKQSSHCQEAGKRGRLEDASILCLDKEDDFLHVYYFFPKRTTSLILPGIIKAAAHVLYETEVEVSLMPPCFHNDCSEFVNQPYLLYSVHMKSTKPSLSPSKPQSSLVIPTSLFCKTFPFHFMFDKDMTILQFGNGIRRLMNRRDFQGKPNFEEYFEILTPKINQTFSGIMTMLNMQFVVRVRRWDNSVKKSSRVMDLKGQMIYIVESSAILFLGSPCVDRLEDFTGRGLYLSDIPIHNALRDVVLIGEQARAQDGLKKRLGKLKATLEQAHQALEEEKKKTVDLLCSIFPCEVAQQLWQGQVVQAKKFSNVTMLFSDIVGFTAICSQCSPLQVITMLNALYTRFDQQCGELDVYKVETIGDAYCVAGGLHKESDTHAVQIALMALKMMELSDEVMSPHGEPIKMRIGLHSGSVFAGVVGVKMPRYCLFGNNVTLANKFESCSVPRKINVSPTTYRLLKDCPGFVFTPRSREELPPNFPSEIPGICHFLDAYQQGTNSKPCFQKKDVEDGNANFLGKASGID
T1 sequence (Q02153 1-619): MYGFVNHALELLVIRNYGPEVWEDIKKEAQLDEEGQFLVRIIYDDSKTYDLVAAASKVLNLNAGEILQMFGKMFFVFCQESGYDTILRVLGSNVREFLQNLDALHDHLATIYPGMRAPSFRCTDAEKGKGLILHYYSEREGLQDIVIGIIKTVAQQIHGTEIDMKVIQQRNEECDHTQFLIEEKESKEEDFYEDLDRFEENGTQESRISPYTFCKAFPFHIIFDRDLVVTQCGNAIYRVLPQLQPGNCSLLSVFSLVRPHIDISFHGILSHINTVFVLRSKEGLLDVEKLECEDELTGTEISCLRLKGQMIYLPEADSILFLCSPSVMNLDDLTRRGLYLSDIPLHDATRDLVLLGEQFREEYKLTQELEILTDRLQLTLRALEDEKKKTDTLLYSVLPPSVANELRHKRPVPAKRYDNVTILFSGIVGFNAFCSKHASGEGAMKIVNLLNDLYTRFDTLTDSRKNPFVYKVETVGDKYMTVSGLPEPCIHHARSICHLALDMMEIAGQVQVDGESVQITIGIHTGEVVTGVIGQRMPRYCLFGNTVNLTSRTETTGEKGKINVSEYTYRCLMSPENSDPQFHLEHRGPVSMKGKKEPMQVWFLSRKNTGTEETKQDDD
Excerpt: sGC is a heme-containing enzyme that converts GTP to secondary messenger cGMP. Increases in cGMP levels affect several physiological processes including vasorelaxation through multiple downstream pathways. […] Heme-dependent activators (HDAs) preferentially activate sGC containing a ferrous heme group. To determine the effect of sGC activators on enzyme activity, the CASA assay was developed to monitor the generation of cGMP in a cell line that stably expresses the heterodimeric sGC protein.
A CHO-K1 cell line stably expressing the sGC α1/β1 heterodimer was generated using a standard transfection protocol. CHO-K1 cells were transfected with plasmids pIREShyghsGCα1 and pIRESneo-hsGCβ1 simultaneously using FUGENE reagent. Clones that stably express both subunits were selected with hygromycin and neomycin for ˜2 weeks. Clone #7 was chosen for the assay and was designated CHO-K1/sGC. CHO-K1/sGC cells were maintained in F-K12 medium containing 10% heat-inactivated Fetal Bovine Serum (FBS), 100 μg/mL penicillin/streptomycin, 0.5 mg/mL hygromycin and 0.25 mg/mL G418. The cells were then cryopreserved in LN2. On the day of the assay, cells thawed and resuspended in EBSS Assay Buffer (Sigma, E3024) supplemented with 5 mM MgCl2, 10 mM HEPES (4-(2-hydroxyethyl)piperazine-1-ethanesulfonic acid) and 0.05% BSA (bovine serum albumin) (EAB) and cell density was then adjusted to 4×10^5/mL with EAB. IBMX (3-isobutyl-1-methylxanthin, 0.5 mM) was added to inhibit degradation of cGMP. Compounds were diluted from DMSO stock solutions and added to the assay at a final DMSO concentration of 2.5%. Cells were incubated with compounds in the presence and absence of 1 μM of Diethylenetriamine/nitric oxide adduct (DETA-NO; Sigma, 17018) for 1 hr at 37° C. At the end of the incubation period, the reaction was terminated and the cells were lysed with the detection reagents from Cisbio Kits. The level of intracellular cGMP was determined using an HTRF-based assay kit (CisBio, 62GM2PEC), which detects the displacement of a fluorescence labeled cGMP from its specific antibody. The cGMP produced by test compounds was directly compared to the maximum cGMP production (this value was set to equal 100% activation.) of the published sGC-HDA Compound A:
[drawing 298] (Example 1 in WO 2010/065275, published Jun. 10, 2010). The test compounds' activities were then expressed as a percentage of Compound A, the standard in every experiment. This percent activation was calculated either in the presence or absence of DETA-NO which was then plotted. IP and maximum fold induction was derived using ADA analysis software for 4P fit.

Row | Structure (SMILES) | Emax [%]
1 | C[C@@]1(c2ccc(F)cc2)C(=O)Nc2nc(-c3cn4ncnc4c(CCC(F)(F)F)n3)ncc21 [Example 174A, (S)-5-(4-fluorophenyl)-5-methyl-2-(8-(3,3,3-trifluoropropyl)-[1,2,4]triazolo[1,5-a]pyrazin-6-yl)-5,7-dihydro-6H-pyrrolo[2,3-d]pyrimidin-6-one] | 133
2 | CC1(c2ccc(C(F)(F)F)cc2)C(=O)Nc2nc(-c3cn4ncnc4c(CCCC(F)(F)F)n3)nc(O)c21 (centres unmarked) [Example 137B, 4-hydroxy-5-methyl-2-(8-(4,4,4-trifluorobutyl)-[1,2,4]triazolo[1,5-a]pyrazin-6-yl)-5-(4-(trifluoromethyl)phenyl)-5H-pyrrolo[2,3-d]pyrimidin-6(7H)-one] | 102
3 | Nc1nc(-c2cn3ncnc3c(CCCC(F)(F)F)n2)nc2c1C(c1ccc(Cl)cc1)(C1CC1)C(=O)N2 (centres unmarked) [Example 31B, 4-amino-5-(4-chlorophenyl)-5-cyclopropyl-2-(8-(4,4,4-trifluorobutyl)-[1,2,4]triazolo[1,5-a]pyrazin-6-yl)-5H-pyrrolo[2,3-d]pyrimidin-6(7H)-one] | 104
4 | CC1(c2ccccc2)C(=O)Nc2nc(-c3cn4ncnc4c(CCC(F)(F)C(F)(F)F)n3)nc(O)c21 (centres unmarked) [Example 128B, 4-hydroxy-5-methyl-2-(8-(3,3,4,4,4-pentafluorobutyl)-[1,2,4]triazolo[1,5-a]pyrazin-6-yl)-5-phenyl-5H-pyrrolo[2,3-d]pyrimidin-6(7H)-one] | 106
5 | CC1(c2ccc(Cl)cc2)C(=O)Nc2nc(-c3cn4ncnc4c(CCC(F)(F)C(F)(F)F)n3)nc(N)c21 (centres unmarked) [Example 10A, 4-amino-5-(4-chlorophenyl)-5-methyl-2-(8-(3,3,4,4,4-pentafluorobutyl)-[1,2,4]triazolo[1,5-a]pyrazin-6-yl)-5H-pyrrolo[2,3-d]pyrimidin-6(7H)-one] | 137
6 | Cc1cnc(C2(C3CC3)C(=O)Nc3nc(-c4cn5ncnc5c(CCC(F)(F)C(F)(F)F)n4)nc(N)c32)cn1 (racemic) [Example 21B, 4-amino-5-cyclopropyl-5-(5-methylpyrazin-2-yl)-2-(8-(3,3,4,4,4-pentafluorobutyl)-[1,2,4]triazolo[1,5-a]pyrazin-6-yl)-5H-pyrrolo[2,3-d]pyrimidin-6(7H)-one] | 99
7 | CCCCc1nc(-c2nc(N)c3c(n2)NC(=O)C3(C)c2ccc(C)cn2)cn2ncnc12 (centres unmarked) [Example 71B, 4-amino-2-(8-butyl-[1,2,4]triazolo[1,5-a]pyrazin-6-yl)-5-methyl-5-(5-methylpyridin-2-yl)-5H-pyrrolo[2,3-d)pyrimidin-6(7H)-one] | 118
8 | Nc1nc(-c2cn3ncnc3c(CCC(F)(F)F)n2)nc2c1C(c1ccc(F)c(F)c1)(C1CC1)C(=O)N2 (centres unmarked) [Example 83A, 4-amino-5-cyclopropyl-5-(3,4-difluorophenyl)-2-(8-(3,3,3-trifluoropropyl)-[1,2,4]triazolo[1,5-a]pyrazin-6-yl)-5H-pyrrolo[2,3-d]pyrimidin-6(7H)-one] | 100
9 | CC1(c2ccc(F)c(Cl)c2)C(=O)Nc2nc(-c3cn4ncnc4c(CCCC(F)(F)F)n3)nc(O)c21 (centres unmarked) [Example 147B, 5-(3-chloro-4-fluorophenyl)-4-hydroxy-5-methyl-2-(8-(4,4,4-trifluorobutyl)-[1,2,4]triazolo[1,5-a]pyrazin-6-yl)-5,7-dihydro-6H-pyrrolo[2,3-d]pyrimidin-6-one] | 94
10 | CC1(c2ccc(F)c(Cl)c2)C(=O)Nc2nc(-c3cn4ncnc4c(CCCC(F)(F)F)n3)nc(N)c21 (centres unmarked) [Example 42B, 4-amino-5-(3-chloro-4-fluorophenyl)-5-methyl-2-(8-(4,4,4-trifluorobutyl)-[1,2,4]triazolo[1,5-a]pyrazin-6-yl)-5H-pyrrolo[2,3-d]pyrimidin-6(7H)-one] | 82
11 | Nc1nc(-c2cn3ncnc3c(CCC(F)(F)F)n2)nc2c1C(c1ccc(C(F)(F)F)cn1)(C1CC1)C(=O)N2 (centres unmarked) [Example 80A, 4-amino-5-cyclopropyl-5-(5-(trifluoromethyl)pyridin-2-yl)-2-(8-(3,3,3-trifluoropropyl)-[1,2,4]triazolo[1,5-a]pyrazin-6-yl)-5H-pyrrolo[2,3-d]pyrimidin-6(7H)-one] | 115
12 | CC1(c2ccccc2F)C(=O)Nc2nc(-c3cn4ncnc4c(CCC(F)(F)C(F)(F)F)n3)nc(O)c21 (centres unmarked) [Example 170A, 5-(2-Fluorophenyl)-4-hydroxy-5-methyl-2-(8-(3,3,4,4,4-pentafluorobutyl)-[1,2,4]triazolo[1,5-a]pyrazin-6-yl)-5,7-dihydro-6H-pyrrolo[2,3-d]pyrimidin-6-one] | 125
13 | Nc1nc(-c2cn3ncnc3c(CCC(F)(F)C(F)(F)F)n2)nc2c1C(c1cn(C3CC3)nn1)(C1CC1)C(=O)N2 (centres unmarked) [Example 96B, 4-amino-5-cyclopropyl-5-(1-cyclopropyl-1H-1,2,3-triazol-4-yl)-2-(8-(3,3,4,4,4-pentafluorobutyl)-[1,2,4]triazolo[1,5-a]pyrazin-6-yl)-5H-pyrrolo[2,3-d]pyrimidin-6(7H)-one] | 108
14 | CCCCc1nc(-c2nc(N)c3c(n2)NC(=O)C3(c2ccc(Cl)cn2)C2CC2)cn2ncnc12 (centres unmarked) [Example 68A, 4-amino-2-(8-butyl-[1,2,4]triazolo[1,5-a]pyrazin-6-yl)-5-(5-chloropyridin-2-yl)-5-cyclopropyl-5H-pyrrolo[2,3-d]pyrimidin-6(7H)-one] | 113
15 | Cc1nc2c(Cc3ccc(F)cc3)nc(-c3nc(N)c4c(n3)NC(=O)[C@@]4(C)c3ccc(F)cc3)cn2n1 [Example 87B, (S)-4-amino-2-(8-(4-fluorobenzyl)-2-methyl-[1,2,4]triazolo[1,5-a]pyrazin-6-yl)-5-(4-fluorophenyl)-5-methyl-5H-pyrrolo[2,3-d]pyrimidin-6(7H)-one] | 138
16 | Nc1nc(-c2cn3ncnc3c(CCCC(F)(F)F)n2)nc2c1C(c1ncc(C(F)(F)F)cn1)(C1CC1)C(=O)N2 (single isomer, unassigned) [Example 180B, 4-amino-5-cyclopropyl-2-(8-(4,4,4-trifluorobutyl)-[1,2,4]triazolo[1,5-a]pyrazin-6-yl)-5-(5-(trifluoromethyl)pyrimidin-2-yl)-5,7-dihydro-6H-pyrrolo[2,3-d]pyrimidin-6-one] | 97
17 | CC1(c2ccccn2)C(=O)Nc2nc(-c3cn4ncnc4c(CCCC(F)(F)F)n3)nc(O)c21 (centres unmarked) [Example 145B, 4-hydroxy-5-methyl-5-(pyridin-2-yl)-2-(8-(4,4,4-trifluorobutyl)-[1,2,4]triazolo[1,5-a]pyrazin-6-yl)-5H-pyrrolo[2,3-d]pyrimidin-6(7H)-one] | 64
